Legend:
in vitro = conditions: dog, MDCK
[1] = Permeability in artificial membrane assay; assay type: ADME, cell membranes; conditions: PAMPA; read-out: permeability

Papp (in vitro): 44.8 ×10⁻⁶ cm/s
Papp [1]: 31 ×10⁻⁶ cm/s
SMILES: CCN(C(=O)c1c(-c2ccccc2Cl)noc1C)c1cccc(Cl)c1
